Measurements: article PMC12974487, “Inhibition of FicD-mediated AMPylation and deAMPylation by isoprenoid diphosphates” (Proceedings of the National Academy of Sciences of the …, 2026)
Residue numbers refer to the chain shown, from its start.

Key:
[1] = target: T1, FicD^E234G, L258D (Homo sapiens, UniProt Q9BVA6, E234G/L258D); experiment: DSF thermal shift with FicD^E234G, L258D; format: binding
T1 construct: Wild-type FicD (residues 105-458) and all mutants were expressed as N-terminal 6xHis-Sumo fusions; 6xHis-Sumo (N, cleaved yes); made in house; host or cells: Rosetta(DE3) E. coli
T1 sequence (Q9BVA6 105-458 E234G/L258D): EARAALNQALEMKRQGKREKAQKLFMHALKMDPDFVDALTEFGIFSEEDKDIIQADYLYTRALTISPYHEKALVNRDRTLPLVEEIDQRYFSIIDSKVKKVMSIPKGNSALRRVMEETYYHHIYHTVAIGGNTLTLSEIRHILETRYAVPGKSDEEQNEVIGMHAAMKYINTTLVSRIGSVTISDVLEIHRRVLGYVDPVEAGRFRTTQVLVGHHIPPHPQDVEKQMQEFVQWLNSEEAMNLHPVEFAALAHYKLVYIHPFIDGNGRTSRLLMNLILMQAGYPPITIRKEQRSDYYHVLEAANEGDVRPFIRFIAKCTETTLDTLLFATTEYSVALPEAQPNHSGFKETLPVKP

[2] = target: T2, FicD^R371S (Homo sapiens, UniProt Q9BVA6, R371S); experiment: AMPylation of Δ26hBiP^T229A by pathogenic variant FicD^R371S; format: biochemical; conditions: indicated concentrations of FPP
T2 construct: Wild-type FicD (residues 105-458) and all mutants were expressed as N-terminal 6xHis-Sumo fusions; 6xHis-Sumo (N, cleaved yes); made in house; host or cells: Rosetta(DE3) E. coli
T2 sequence (Q9BVA6 105-458 R371S): T1 sequence (Q9BVA6 105-458 E234G/L258D) with G130E, D154L, R267S
Source text: Fig. 5. Crystal structure of FPP inhibitor bound to FicD active site. […] FPP (cyan stick) and Mg^2+ (cyan sphere) in the pocket of FicD shown as APBS electrostatic surface with positive areas in blue, negative in red, and neutral in white (contour level: ±5 kBT/e) (Right). […] (C–E) AMPylation assays of Δ26hBiP^T229A in the presence of the indicated concentration of FPP using the pathogenic human variants (C) FicD^R371S, (D) FicD^R374H and (E) FicD^R374C. AMPylated BiP and Fic were quantified by immunodetection, and total BiP was quantified by CBB. […]
Isothermal Titration Calorimetry
Proteins were dialyzed against 25mM HEPES pH 7.4/100mM KCl/10% glycerol prior to titration. […]
MgCl2 was added to […]
proteins to a final concentration of 4mM. ITC experiments were performed in a Micro-Cal PEAQ-ITC (Malvern Panalytical, Worcestershire, UK) calorimeter with a stirred 206.2 μL reaction cell held at 20 °C. 250μM FPP was titrated into 25uM Δ104hFicL258D with 750rpm stirring. The first injection was 0.5 μL, followed by twenty 1.9 μL injections. […]
Thermogram and binding figures were plotted in
For AMPylation assays with FicD and BiP, Δ104FicDWT and Δ26hBiPT229A were combined at a ratio of 1:80 in buffer containing 25mM HEPES pH 7.4, 100mM KCl, 5mM MgCl2, 500μM ATP, 1mM DTT, and small molecule where indicated. Assays with Δ104FicDWT were incubated for 1 hour. […]

[3] = target: T2, FicD^R371S; experiment: DSF with FicD^R371S variant; format: binding; conditions: addition of 5 mM MgCl2, any concentration tested
[4] = target: T3, FicD^R374C (Homo sapiens, UniProt Q9BVA6, R374C); experiment: DSF with FicD^R374C variant; format: binding
T3 construct: Wild-type FicD (residues 105-458) and all mutants were expressed as N-terminal 6xHis-Sumo fusions; 6xHis-Sumo (N, cleaved yes); made in house; host or cells: Rosetta(DE3) E. coli
T3 sequence (Q9BVA6 105-458 R374C): T1 sequence (Q9BVA6 105-458 E234G/L258D) with G130E, D154L, R270C

CC(C)=CCC/C(C)=C/CC/C(C)=C/COP(=O)(O)OP(=O)(O)O [FPP, farnesyl-pyrophosphate]
binding to FicD^E234G, L258D by DSF ([1]; absence of MgCl2): bound
binding to FicD^E234G, L258D by DSF ([1]; presence of 5 mM MgCl2): bound
FPP inhibition of FicD^R371S AMPylation activity [2]: total loss of FPP inhibition
binding to FicD^R371S by DSF [3]: did not confer FPP binding
binding to R374C variant by DSF (melting curve shift) ([4]; absence of Mg2+): caused shifts in the melting curves
binding to R374C variant by DSF (melting curve shift) ([4]; addition of Mg2+): enhanced the binding
